Measured values from patent publication US6517864B1 (Pharmacia AB, priority 1998, dated 2003).

Columns and labels:
[1] = pharmacokinetics of oral tolterodine (background data); conditions: extensive metabolisers, EMs
[2] = In vitro permeation across synthetic membranes and dermatomed pig skin from solutions of tolterodine base (Franz diffusion cells, Example 2); format: in vitro ADME
Method: In vitro skin permeation results were obtained from studies on pig or human skin using Franz diffusion cells.
Full thickness pig and human skin (used in Example 1) or 765 μm skin (used in all other Examples) was used. The 765 μm skin was isolated by using a dermatome (Zimmer Electric Dermatome 8821, Zimmer Chirurgie).
The skin was mounted in the diffusion cells with an available diffusion area of 1.8 cm^2. The inner side of the skin was exposed to 12.1 ml receptor phase (0.05M phosphate buffer, pH 7.4) at 37±1° C. Samples were withdrawn periodically and measured by HPLC. Fluxes (>g/cm^2/h) were obtained by linear regression of data at steady state.
In vitro permeation studies across synthetic membranes and dermatomed pig skin from solutions of tolterodine base, imitating the reservoir type transdermal device. Enhancer was added to one of the solutions.
Membranes of the following types were used: CoTran 9702 (microporous polyethylene film) with 9% vinyl acetate (VA) and CoTran 9728 with 19% vinyl acetate. The solutions 3 and 4 were both applied on the surface of the two mentioned membranes while solution 5 only was applied on the surface of the CoTran 9702 membrane with 9% vinyl acetate. The membranes were placed on top of dermatomed pigskin. The inner sides of the pigskin were exposed to 12.1 ml receptor solution (0.05M phosphate pH 7.4 equilibrated to 37±1° C.).

[3] = solubility in water; conditions: room temperature
[4] = poor metabolizer; cited from earlier work
[5] = partition coefficient between n-octanol and phosphate buffer; conditions: n-octanol / phosphate buffer at pH 7.32
[6] = test system: guinea pigs; assay: Delayed contact hypersensitivity, Guinea Pig Maximization Test; format: in vivo; conditions: 1% intradermal induction, 25% topical induction and challenge, in sesame oil
Description: The delayed contact hypersensitivity test used was the Guinea Pig Maximization Test described by B. Magnusson and A. M. Kligman.
A 1% (w/w) test article concentration in sesame oil was used for the intradermal induction. A 25% (w/w) test article concentration in sesame oil was used for the topical induction and for the challenge application.

Substance	half-life [1]	flux ([2]; 1 or 3% HPC/ethanol solution, 9% VA CoTran membrane on dermatomed pigskin)	flux ([2]; 1 or 3% HPC/ethanol solution, 19% VA CoTran membrane on dermatomed pigskin)	flux ([2]; enhancer (methyl laurate:ethanol 1:9), 9% VA CoTran membrane on dermatomed pigskin)	solubility in water [3]	systemic clearance (CL) [4]	partition coefficient (Log P) [5]	delayed contact hypersensitivity reaction [6]
N,N-dilso-propyl-3′-(2-hydroxy-5-methylphenyl)-3-phenylpropanamine [Tolterodine]	about 2 hours	about 4 μg/cm^2/h	about 11 μg/cm^2/h	9 μg/cm^2/h	about 11 mg/ml	about 10 L/h	1.83	–
tolterodine L-tartrate	–	–	–	–	–	–	–	did not provoke a delayed contact hypersensitivity reaction
